In US7928078B2, “Conjugates of immune cell specific macrolide compounds with anti-inflammatory compounds for improved cellular targeting of anti-inflammatory therapy” (GlaxoSmithKline Istrazivacki Centar Zagreb D.O.O., priority 2001, dated 2011):

Legend:
[1] = tested on: interleukin-2 production induced by the stimulation via CD3 receptor; experiment: Assay of inhibition of interleukin-2 production; assay type: cell-based, mouse
Experimental: Assay of Inhibition of Interleukin-2 Production
Onto a 96-well plate (Nunc) 15 ng of 2C11 antibodies (Pharmingen) per well were added and left to adsorb in PBS buffer (pH=7.4) overnight at 4° C. PBS was removed, the plate was washed with RPMI medium and then 50,000 cells per well were added and incubated in the medium with and without a dilution of the test compounds. The concentration of IL-2 in the supernatant was measured by ELISA specific for mouse IL-2 (R&D Systems).

[2] = target: T1, alpha isoform of human glucocorticoid receptor (Homo sapiens, UniProt P04150); experiment: Assay of binding to the human glucocorticoid receptor ([3H] dexamethasone competition in transfected COS-1 cells); settings: 24 nM [3H] dexamethasone
T1 construct: expressed in transfected cells; host or cells: COS-1 cells, transient transfection with pcDNA3.1 hygro(+) carrying the GR alpha cDNA
T1 sequence (P04150 1-777): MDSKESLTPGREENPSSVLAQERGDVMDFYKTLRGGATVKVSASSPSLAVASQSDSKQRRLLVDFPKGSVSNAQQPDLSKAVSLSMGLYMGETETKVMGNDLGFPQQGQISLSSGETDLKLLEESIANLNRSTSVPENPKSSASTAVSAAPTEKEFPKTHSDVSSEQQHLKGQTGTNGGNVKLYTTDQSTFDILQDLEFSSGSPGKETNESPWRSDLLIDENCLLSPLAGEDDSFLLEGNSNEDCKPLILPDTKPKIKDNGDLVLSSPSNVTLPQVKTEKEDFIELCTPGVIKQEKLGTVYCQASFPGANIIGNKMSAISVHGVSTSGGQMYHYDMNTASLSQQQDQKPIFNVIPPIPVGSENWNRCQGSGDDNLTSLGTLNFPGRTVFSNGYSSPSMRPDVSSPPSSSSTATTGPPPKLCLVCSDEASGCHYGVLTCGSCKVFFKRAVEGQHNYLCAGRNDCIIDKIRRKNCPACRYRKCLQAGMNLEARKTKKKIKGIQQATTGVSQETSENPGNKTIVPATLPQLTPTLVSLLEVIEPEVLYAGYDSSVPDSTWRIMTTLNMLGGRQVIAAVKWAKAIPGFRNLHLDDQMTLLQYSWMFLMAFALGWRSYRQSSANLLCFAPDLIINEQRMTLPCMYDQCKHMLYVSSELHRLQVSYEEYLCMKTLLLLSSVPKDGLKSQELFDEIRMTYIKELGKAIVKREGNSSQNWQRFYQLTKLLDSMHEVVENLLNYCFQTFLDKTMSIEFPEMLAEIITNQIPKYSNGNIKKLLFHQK
From the text: Assay of Binding to the Human Glucocorticoid Receptor
The gene for alpha isoform of human glucocorticoid receptor was cloned by reverse polymerase chain reaction. The total RNA was isolated from human peripheral blood lymphocites according to the instructions of the manufacturer (Qiagen), transcripted into cDNA with AMV reverse transcriptase (Roche) and the gene was multiplied by specific primers
The obtained reaction product was cloned into XhoI/BamHI site of Bluescript KS plasmid (Stratagene), subjected to sequencing by dideoxy fluorescent method with M13 and M13 rev primers (Mycrosynth) and then it was cloned into XhoI/BamHI site of pcDNA3.1 hygro(+)plasmid (Invitrogen). 1×10^5 COS-1 cells were seeded onto a 12-well plate (Falcon) in DMEM medium (Life Technologies) with 10% FBS (Biowhitaker) and cultivated up to a 70% confluence at 37° C. in an atmosphere with 5% CO2. The medium was removed and 1 μg of DNA, 7 μl of PLUS reagent and 2 μl of Lipofectamine (Life Technologies) in 500 μl DMEM were added per well. The cells were incubated at 37° C. in an atmosphere with 5% CO2 and after 5 hours the same volume of 20% FBS/DMEM was added. After 24 hours the medium was completely changed. 48 hours after the transfection, the test compounds in different concentrations and 24 nM [^3H] dexamethasone (Pharmacia) in DMEM medium were added. The cells were incubated for 90 minutes at 37° C. in an atmosphere with 5% CO2, washed three times with PBS buffer (Sigma), cooled to 4° C. (pH=7.4) and then lyzed in Tris buffer (pH=8.0) (Sigma) with 0.2% SDS (Sigma). After the addition of UltimaGold XR (Packard) scintillation liquid, the residual radioactivity was read in a Tricarb (Packard) β-scintillation counter.

[3] = tested on: mouse T-cell hybridoma 13; experiment: Assay of inhibition of mouse T-cell hybridoma 13 proliferation as a result of apoptose induction; assay type: cell-based; settings: [3H] thymidine incorporation
Experimental: Assay of Inhibition of Mouse T-Cell Hybridoma 13 Proliferation as a Result of Apoptose Induction
In a 96-well plate triplicates of test steroid dilution in RPMI medium (Immunoloski zavod) with […] were performed. To the solutions of compounds 20 000 cells per well were added and incubated overnight at 37° C. in an atmosphere with 5% CO2, then 1 μCi of [^3H] thymidine (Pharmacia) was added and it was incubated for additional 3 hours. The cells were harvested by sucking over GF/C filter (Packard). Onto each well 30 μl of Microscynt O scintillation liquid (Packard) were added and the incorporated radioactivity was measured on a β-scintillation counter (Packard). The specifity of apoptose induction by glucocorticoids was proven by antagonising the proliferation inhibition with mifepristone (Sigma).

Row | Compound | melting point [°C] | other results
1 | CC[C@H]1OC(=O)[C@H](C)[C@@H](O)[C@H](C)[C@@H](O[C@@H]2O[C@H](C)C[C@@H](N(C)C)[C@H]2OC(=O)CCCCOC(=O)[C@@]2(O)[C@H](C)CC3C4CCC5=CC(=O)C=C[C@]5(C)[C@@]4(F)[C@@H](O)C[C@@]32C)[C@](C)(O)C[C@@H](C)CN(C)[C@H](C)[C@@H](O)[C@]1(C)O (stereo partly drawn) | 170 | –
2 | CC[C@H]1OC(=O)[C@H](C)[C@@H](O)[C@H](C)[C@@H](O[C@@H]2O[C@H](C)C[C@@H](N(C)C)[C@H]2O)[C@](C)(O)C[C@@H](C)CN(CCCNC(=O)[C@@]2(O)CCC3C4CCC5=CC(=O)CC[C@]5(C)C4[C@@H](O)C[C@@]32C)[C@H](C)[C@@H](O)[C@]1(C)O (stereo partly drawn) | 160 to 161 | –
3 | CC[C@H]1OC(=O)[C@H](C)[C@@H](O)[C@H](C)[C@@H](O[C@@H]2O[C@H](C)C[C@@H](N(C)C)[C@H]2O)[C@](C)(O)C[C@@H](C)CN(CCCNC(=O)[C@@]2(O)[C@H](C)CC3C4CCC5=CC(=O)C=C[C@]5(C)[C@@]4(F)[C@@H](O)C[C@@]32C)[C@H](C)[C@@H](O)[C@]1(C)O (stereo partly drawn) | 260 to 265 | –
4 | CC[C@H]1OC(=O)C(C)[C@@H](O)[C@H](C)[C@@H](O[C@@H]2O[C@H](C)C[C@@H](N(C)C)[C@H]2O)[C@](C)(O)C[C@@H](C)CN(CCCNC(=O)[C@@]2(O)[C@H](C)CC3C4C[C@H](F)C5=CC(=O)C=C[C@]5(C)[C@@]4(Cl)[C@@H](O)C[C@@]32C)[C@H](C)[C@@H](O)[C@]1(C)O (stereo partly drawn) | 130 to 132 | –
5 | CC[C@H]1OC(=O)[C@H](C)[C@@H](O)[C@H](C)[C@@H](O[C@@H]2O[C@H](C)C[C@@H](N(C)C)[C@H]2O)[C@](C)(O)C[C@@H](C)CN(CCCNC(=O)[C@@]2(O)[C@H](C)CC3C4C[C@H](F)C5=CC(=O)C=C[C@]5(C)[C@@]4(F)[C@@H](O)C[C@@]32C)[C@H](C)[C@@H](O)[C@]1(C)O (stereo partly drawn) | 182 | –
6 | CC[C@H]1OC(=O)[C@H](C)[C@@H](O[C@@H]2C[C@](C)(OC)[C@H](O)C(C)O2)[C@H](C)[C@@H](O[C@@H]2O[C@H](C)C[C@@H](N(C)C)[C@H]2O)[C@](C)(O)C[C@@H](C)CN(CCCNC(=O)[C@@]2(O)[C@H](C)CC3C4C[C@H](F)C5=CC(=O)C=C[C@]5(C)C4[C@@H](O)C[C@@]32C)[C@H](C)[C@@H](O)[C@]1(C)O (stereo partly drawn) | 175 to 178 | –
7 | CC[C@H]1OC(=O)[C@H](C)[C@@H](O)[C@H](C)[C@@H](O[C@@H]2O[C@H](C)C[C@@H](N(C)C)[C@H]2OC(=O)CCCCOC(=O)[C@@]2(O)[C@H](C)CC3C4C[C@H](F)C5=CC(=O)C=C[C@]5(C)[C@@]4(Cl)[C@@H](O)C[C@@]32C)[C@](C)(O)C[C@@H](C)CN(C)[C@H](C)[C@@H](O)[C@]1(C)O (stereo partly drawn) [Compound 27] | 130 to 132 | inhibition of interleukin-2 production [1]: demonstrate an inhibition; competition with radioactive dexamethasone in the binding site on the glucocorticoid receptor [2]: able to compete with radioactive dexamethasone; inhibition of cell hybridoma 13 proliferation [3]: demonstrated an inhibition

More lines, main results first:

Row | melting point [°C] | Compound | other results
8 | 202 to 204 | CC[C@H]1OC(=O)[C@H](C)[C@@H](O)[C@H](C)C(O[C@@H]2O[C@H](C)C[C@@H](N(C)C)[C@H]2O)[C@](C)(O)C[C@@H](C)CN(CCCNC(=O)[C@@]2(O)[C@H](C)CC3C4C[C@H](F)C5=CC(=O)C=C[C@]5(C)C4[C@@H](O)C[C@@]32C)[C@H](C)[C@@H](O)[C@]1(C)O (stereo partly drawn) | –
9 | 145 to 151 | CC[C@H]1OC(=O)[C@H](C)[C@@H](O)[C@H](C)[C@@H](O[C@@H]2O[C@H](C)C[C@@H](N(C)C)[C@H]2OC(=O)CCCCOC(=O)[C@@]2(O)[C@H](C)CC3C4C[C@H](F)C5=CC(=O)C=C[C@]5(C)C4[C@@H](O)C[C@@]32C)[C@](C)(O)C[C@@H](C)CN(C)[C@H](C)[C@@H](O)[C@]1(C)O (stereo partly drawn) | –
10 | 159 to 160 | CC[C@H]1OC(=O)[C@H](C)[C@@H](O[C@@H]2C[C@](C)(OC)[C@H](O)C(C)O2)[C@H](C)[C@@H](O[C@@H]2O[C@H](C)C[C@@H](N(C)C)[C@H]2OC(=O)CCCCOC(=O)[C@@]2(O)[C@H](C)CC3C4C[C@H](F)C5=CC(=O)C=C[C@]5(C)[C@@]4(F)[C@@H](O)C[C@@]32C)[C@](C)(O)C[C@@H](C)CN(C)[C@H](C)[C@@H](O)[C@]1(C)O (stereo partly drawn) | –
11 | 174 to 175 | CC[C@H]1OC(=O)[C@H](C)[C@@H](OC(=O)CCCCOC(=O)[C@@]2(O)[C@H](C)CC3C4CCC5=CC(=O)C=C[C@]5(C)[C@@]4(F)[C@@H](O)C[C@@]32C)[C@H](C)[C@@H](O[C@@H]2O[C@H](C)C[C@@H](N(C)C)[C@H]2OC(C)=O)[C@](C)(O)C[C@@H](C)CN(C)[C@H](C)[C@@H](O)[C@]1(C)O (stereo partly drawn) | –
12 | 161 to 168 | CC[C@H]1OC(=O)[C@H](C)[C@@H](O[C@@H]2C[C@](C)(OC)[C@H](O)C(C)O2)[C@H](C)[C@@H](O[C@@H]2O[C@H](C)C[C@@H](N(C)C)[C@H]2OC(=O)CCCCOC(=O)[C@@]2(O)[C@H](C)CC3C4CCC5=CC(=O)C=C[C@]5(C)[C@@]4(F)[C@@H](O)C[C@@]32C)[C@](C)(O)C[C@@H](C)CN(C)[C@H](C)[C@@H](O)[C@]1(C)O (stereo partly drawn) | –
13 | 178 | CC[C@H]1OC(=O)[C@H](C)[C@@H](O[C@@H]2C[C@](C)(OC)[C@H](O)C(C)O2)[C@H](C)[C@@H](O[C@@H]2O[C@H](C)C[C@@H](N(C)C)[C@H]2O)[C@](C)(O)C[C@@H](C)CN(CCCNC(=O)[C@@]23OC(C)(C)O[C@@H]2CC2C4C[C@H](F)C5=CC(=O)C=C[C@]5(C)[C@@]4(F)[C@@H](O)C[C@@]23C)[C@H](C)[C@@H](O)[C@]1(C)O (stereo partly drawn) | –
14 | 91 to 99 | CC[C@H]1OC(=O)[C@H](C)[C@@H](O[C@@H]2C[C@](C)(OC)[C@H](O)C(C)O2)[C@H](C)[C@@H](O[C@@H]2O[C@H](C)C[C@@H](N(C)C)[C@H]2OC(=O)CCCCOC(=O)[C@@]2(O)[C@H](C)CC3C4C[C@H](F)C5=CC(=O)C=C[C@]5(C)[C@@]4(Cl)[C@@H](O)C[C@@]32C)[C@](C)(O)C[C@@H](C)CN(C)[C@H](C)[C@@H](O)[C@]1(C)O (stereo partly drawn) | –
15 | 194 to 202 | CC[C@H]1OC(=O)[C@H](C)[C@@H](O[C@@H]2C[C@](C)(OC)[C@H](O)C(C)O2)[C@H](C)[C@@H](O[C@@H]2O[C@H](C)C[C@@H](N(C)C)[C@H]2O)[C@](C)(O)C[C@@H](C)CN(CCCNC(=O)[C@@]2(O)[C@H](C)CC3C4C[C@H](F)C5=CC(=O)C=C[C@]5(C)[C@@]4(Cl)[C@@H](O)C[C@@]32C)[C@H](C)[C@@H](O)[C@]1(C)O (stereo partly drawn) | –
